Assays:
[1] = target: neuronal nAChR ACh recognition sites; details: ref Perry et al., 1988; Hunter et al., 1989; cited from earlier work
[2] = target: human adult nAChRs expressed in HEK 293 cells (Homo sapiens, UniProt P02708+P11230+Q04844+Q07001); type: binding; details: P = 0.64 by one-way ANOVA
Chain of human adult nAChRs expressed in HEK 293 cells (P02708 21-457): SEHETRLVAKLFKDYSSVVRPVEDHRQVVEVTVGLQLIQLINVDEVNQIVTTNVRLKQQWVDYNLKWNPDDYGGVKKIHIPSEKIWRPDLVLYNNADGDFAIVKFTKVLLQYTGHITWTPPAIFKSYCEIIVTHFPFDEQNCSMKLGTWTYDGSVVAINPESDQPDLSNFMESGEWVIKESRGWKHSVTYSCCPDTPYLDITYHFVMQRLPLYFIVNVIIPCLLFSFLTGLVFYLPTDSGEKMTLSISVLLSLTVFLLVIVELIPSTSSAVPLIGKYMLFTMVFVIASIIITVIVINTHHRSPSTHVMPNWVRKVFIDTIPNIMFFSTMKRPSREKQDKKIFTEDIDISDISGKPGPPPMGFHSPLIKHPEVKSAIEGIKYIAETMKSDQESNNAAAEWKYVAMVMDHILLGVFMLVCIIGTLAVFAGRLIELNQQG
Chain of human adult nAChRs expressed in HEK 293 cells (P11230 24-501): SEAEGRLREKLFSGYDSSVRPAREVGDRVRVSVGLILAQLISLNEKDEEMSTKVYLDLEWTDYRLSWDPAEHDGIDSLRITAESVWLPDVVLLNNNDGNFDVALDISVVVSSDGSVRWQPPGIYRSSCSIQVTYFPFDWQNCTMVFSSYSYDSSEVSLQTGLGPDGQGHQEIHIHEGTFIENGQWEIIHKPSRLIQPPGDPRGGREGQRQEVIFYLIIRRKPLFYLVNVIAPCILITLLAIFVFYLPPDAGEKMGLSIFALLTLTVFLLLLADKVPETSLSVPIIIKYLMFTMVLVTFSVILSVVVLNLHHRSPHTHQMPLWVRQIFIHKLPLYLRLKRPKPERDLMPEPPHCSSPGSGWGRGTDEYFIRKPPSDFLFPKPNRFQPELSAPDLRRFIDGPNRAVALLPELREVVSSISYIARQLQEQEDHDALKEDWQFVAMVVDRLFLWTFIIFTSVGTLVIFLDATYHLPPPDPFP
Chain of human adult nAChRs expressed in HEK 293 cells (Q07001 22-517): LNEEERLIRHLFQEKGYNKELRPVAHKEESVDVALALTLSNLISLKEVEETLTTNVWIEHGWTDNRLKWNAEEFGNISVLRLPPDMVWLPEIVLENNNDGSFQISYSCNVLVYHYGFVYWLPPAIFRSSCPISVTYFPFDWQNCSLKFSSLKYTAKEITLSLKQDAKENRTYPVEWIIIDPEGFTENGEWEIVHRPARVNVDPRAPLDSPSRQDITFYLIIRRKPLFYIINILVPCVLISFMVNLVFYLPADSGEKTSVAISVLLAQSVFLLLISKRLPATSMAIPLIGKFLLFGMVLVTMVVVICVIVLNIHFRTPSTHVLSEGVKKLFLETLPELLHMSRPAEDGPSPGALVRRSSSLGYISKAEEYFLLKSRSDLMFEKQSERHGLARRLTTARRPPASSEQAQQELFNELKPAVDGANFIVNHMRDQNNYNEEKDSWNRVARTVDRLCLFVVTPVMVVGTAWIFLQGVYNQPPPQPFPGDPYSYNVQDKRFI
Chain of human adult nAChRs expressed in HEK 293 cells (Q04844 21-493): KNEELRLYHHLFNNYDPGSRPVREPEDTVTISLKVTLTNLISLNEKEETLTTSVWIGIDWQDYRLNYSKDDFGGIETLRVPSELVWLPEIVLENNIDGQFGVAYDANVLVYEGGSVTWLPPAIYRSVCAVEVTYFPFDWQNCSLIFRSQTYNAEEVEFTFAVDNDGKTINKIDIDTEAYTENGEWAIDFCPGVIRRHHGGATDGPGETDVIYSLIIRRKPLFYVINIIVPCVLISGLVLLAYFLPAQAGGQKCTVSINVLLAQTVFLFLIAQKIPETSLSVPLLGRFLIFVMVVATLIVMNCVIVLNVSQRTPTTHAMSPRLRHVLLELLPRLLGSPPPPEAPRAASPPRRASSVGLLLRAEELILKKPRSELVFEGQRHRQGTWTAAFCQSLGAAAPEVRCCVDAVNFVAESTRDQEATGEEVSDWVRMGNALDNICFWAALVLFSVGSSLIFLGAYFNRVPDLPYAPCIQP

## Nc1c2c(nc3ccccc13)CCCC2 [tacrine, 9-amino-1,2,3,4-tetrahydroacridine]
[1]
  Kd values, competitive binding: low micromolar range

## C[N+](C)(C)CCOC(N)=O.[Cl-] [carbamylcholine]
[2]
  difference in log IC 50 values in the presence of varying concentrations of tacrine: No difference

Reference: PMC2229521 (The Journal of General Physiology, 2002)
